Laboratory results taken from ChEMBL document CHEMBL2440076, “New triarylpyrazoles as broad-spectrum anticancer agents: design, synthesis, and biological evaluation” (Eur J Med Chem, 2013).

Columns and labels:
Assay type in all cases: functional
HOP-92 = test: Growth inhibition of human HOP92 cells assessed as cell growth at 5X10'-7 M after 48 hrs by sulforhodamine B assay; conditions: HOP-92, 48 h, read-out: Activity
UACC-62 = test: Growth inhibition of human UACC62 cells after 48 hrs by sulforhodamine B assay; conditions: UACC-62, 48 h
M14 = test: Growth inhibition of human M14 cells after 48 hrs by sulforhodamine B assay; conditions: M14, 48 h
MDA-MB-468 [1] = test: Growth inhibition of human MDA-MB-468 cells assessed as cell growth at 10 uM after 48 hrs by sulforhodamine B assay; conditions: MDA-MB-468, 48 h, read-out: Activity
T47D [2] = test: Growth inhibition of human T47D cells assessed as cell growth at 5X10'-5 M after 48 hrs by sulforhodamine B assay; conditions: read-out: Activity
SF-268 [3] = test: Growth inhibition of human SF268 cells assessed as cell growth at 5X10'-9 M after 48 hrs by sulforhodamine B assay; conditions: SF-268, 48 h, read-out: Activity
SF-268 [4] = test: Growth inhibition of human SF268 cells assessed as cell growth at 10 uM after 48 hrs by sulforhodamine B assay; conditions: SF-268, 48 h, read-out: Activity
PC-3 = test: Growth inhibition of human PC3 cells assessed as cell growth at 5X10'-9 M after 48 hrs by sulforhodamine B assay; conditions: PC-3, 48 h, read-out: Activity
OVCAR-5 = test: Growth inhibition of human OVCAR5 cells assessed as cell growth at 10 uM after 48 hrs by sulforhodamine B assay; conditions: OVCAR-5, 48 h, read-out: Activity
RPMI-8226 = test: Growth inhibition of human RPMI8226 cells assessed as cell growth at 5X10'-7 M after 48 hrs by sulforhodamine B assay; conditions: RPMI-8226, 48 h, read-out: Activity
SK-MEL-2 [5] = test: Growth inhibition of human SK-MEL-2 cells assessed as cell growth at 10 uM after 48 hrs by sulforhodamine B assay; conditions: SK-MEL-2, 48 h, read-out: Activity
SNB-19 = test: Growth inhibition of human SNB19 cells after 48 hrs by sulforhodamine B assay; conditions: SNB-19, 48 h
HCT-15 = test: Growth inhibition of human HCT15 cells assessed as cell growth at 5X10'-5 M after 48 hrs by sulforhodamine B assay; conditions: HCT-15, 48 h, read-out: Activity
ACHN = test: Growth inhibition of human ACHN cells assessed as cell growth at 5X10'-7 M after 48 hrs by sulforhodamine B assay; conditions: read-out: Activity
MCF7 = test: Growth inhibition of human MCF7 cells assessed as cell growth at 5X10'-6 M after 48 hrs by sulforhodamine B assay; conditions: MCF7, 48 h, read-out: Activity
T47D [6] = test: Growth inhibition of human T47D cells assessed as cell growth at 5X10'-7 M after 48 hrs by sulforhodamine B assay; conditions: read-out: Activity
K562 = test: Growth inhibition of human K562 cells assessed as cell growth at 5X10'-7 M after 48 hrs by sulforhodamine B assay; conditions: K562, 48 h, read-out: Activity
COLO 205 = test: Growth inhibition of human COLO205 cells assessed as cell growth at 5X10'-7 M after 48 hrs by sulforhodamine B assay; conditions: COLO 205, 48 h, read-out: Activity
CAKI-1 [7] = test: Growth inhibition of human CAKI-1 cells assessed as cell growth at 5X10'-9 M after 48 hrs by sulforhodamine B assay; conditions: CAKI-1, 48 h, read-out: Activity
SK-MEL-2 [8] = test: Growth inhibition of human SK-MEL-2 cells after 48 hrs by sulforhodamine B assay; conditions: SK-MEL-2, 48 h
HT-29 = test: Growth inhibition of human HT-29 cells assessed as cell growth at 5X10'-8 M after 48 hrs by sulforhodamine B assay; conditions: HT-29, 48 h, read-out: Activity
LOX IMVI = test: Growth inhibition of human LOXIMVI cells assessed as cell growth at 5X10'-7 M after 48 hrs by sulforhodamine B assay; conditions: read-out: Activity
HOP-62 = test: Growth inhibition of human HOP62 cells assessed as cell growth at 5X10'-8 M after 48 hrs by sulforhodamine B assay; conditions: HOP-62, 48 h, read-out: Activity
MDA-MB-468 [9] = test: Growth inhibition of human MDA-MB-468 cells assessed as cell growth at 5X10'-9 M after 48 hrs by sulforhodamine B assay; conditions: MDA-MB-468, 48 h, read-out: Activity
SF-539 = test: Growth inhibition of human SF539 cells after 48 hrs by sulforhodamine B assay; conditions: SF-539, 48 h
Malme-3M = test: Growth inhibition of human MALME-3M cells assessed as cell growth at 5X10'-8 M after 48 hrs by sulforhodamine B assay; conditions: read-out: Activity
BT-549 = test: Growth inhibition of human BT549 cells after 48 hrs by sulforhodamine B assay; conditions: BT-549, 48 h
CAKI-1 [10] = test: Growth inhibition of human CAKI-1 cells assessed as cell growth at 5X10'-6 M after 48 hrs by sulforhodamine B assay; conditions: CAKI-1, 48 h, read-out: Activity
SNB-75 [11] = test: Growth inhibition of human SNB75 cells assessed as cell growth at 5X10'-7 M after 48 hrs by sulforhodamine B assay; conditions: SNB-75, 48 h, read-out: Activity
[12] = Growth inhibition of human NCI-ADR-RES cells assessed as cell growth at 5X10'-5 M after 48 hrs by sulforhodamine B assay; conditions: read-out: Activity
SK-MEL-28 = test: Growth inhibition of human SK-MEL-28 cells assessed as cell growth at 5X10'-9 M after 48 hrs by sulforhodamine B assay; conditions: SK-MEL-28, 48 h, read-out: Activity
SNB-75 [13] = test: Growth inhibition of human SNB75 cells after 48 hrs by sulforhodamine B assay; conditions: SNB-75, 48 h
SF-295 = test: Growth inhibition of human SF295 cells assessed as cell growth at 5X10'-6 M after 48 hrs by sulforhodamine B assay; conditions: SF-295, 48 h, read-out: Activity
UO-31 = test: Growth inhibition of human UO31 cells assessed as cell growth at 5X10'-5 M after 48 hrs by sulforhodamine B assay; conditions: UO-31, 48 h, read-out: Activity
TK-10 = test: Growth inhibition of human TK10 cells after 48 hrs by sulforhodamine B assay; conditions: TK-10, 48 h
T47D [14] = test: Growth inhibition of human T47D cells assessed as cell growth at 5X10'-8 M after 48 hrs by sulforhodamine B assay; conditions: read-out: Activity

## O=C(Nc1cccc(-n2cc(-c3ccncc3)c(-c3ccc(Cl)c(O)c3)n2)c1)c1ccc(N2CCOCC2)c(C(F)(F)F)c1
HOP-92
  growth at 0.5 µM: 53%
UACC-62
  GI50: 3.26 µM
  LC50 (50% lethal concentration): > 50 µM
  TGI: 18.4 µM
M14
  GI50: 1.63 µM
  LC50 (concentration killing 50% of cells): 49.6 µM
  TGI: 9.1 µM
MDA-MB-468 [1]
  growth at 10 µM: 66%
T47D [2]
  growth at 50 µM: 44%
SF-268 [3]
  growth at 0.005 µM: 90%
SF-268 [4]
  growth at 10 µM: 55.5%
PC-3
  growth at 0.005 µM: 100%
OVCAR-5
  growth at 10 µM: 116%
RPMI-8226
  growth at 0.5 µM: 83%
SK-MEL-2 [5]
  growth at 10 µM: 17.6%
SNB-19
  GI50: 4.11 µM
  LC50 (concentration killing 50% of cells): > 50 µM
  TGI: > 50 µM
HCT-15
  growth at 50 µM: -7%
ACHN
  growth at 0.5 µM: 85%
MCF7
  growth at 5 µM: 41%
T47D [6]
  growth at 0.5 µM: 105%
K562
  growth at 0.5 µM: 103%
COLO 205
  growth at 0.5 µM: 111%
CAKI-1 [7]
  growth at 0.005 µM: 93%
SK-MEL-2 [8]
  GI50: 2.89 µM
  LC50 (50% lethal concentration): > 50 µM
  TGI: 15.3 µM
HT-29
  growth at 0.05 µM: 101%
LOX IMVI
  growth at 0.5 µM: 92%
HOP-62
  growth at 0.05 µM: 101%
MDA-MB-468 [9]
  growth at 0.005 µM: 95%
SF-539
  GI50: 1.37 µM
  LC50 (concentration killing 50% of cells): > 50 µM
  TGI: 17.3 µM
Malme-3M
  growth at 0.05 µM: 87%
BT-549
  GI50: 19.4 µM
  LC50 (50% lethal concentration): > 50 µM
  TGI: > 50 µM
CAKI-1 [10]
  growth at 5 µM: 34%
SNB-75 [11]
  growth at 0.5 µM: 72%
[12]
  growth at 50 µM: 16%
SK-MEL-28
  growth at 0.005 µM: 104%
SNB-75 [13]
  GI50: 1.3 µM
  LC50 (lethal concentration, 50% net cell kill): > 50 µM
  TGI: > 50 µM
SF-295
  growth at 5 µM: 13%
UO-31
  growth at 50 µM: -5%
TK-10
  GI50: 21.3 µM
  TGI: > 50 µM
TK-10; read-out: LC50 (the source's name)
  CC50: > 50 µM
T47D [14]
  growth at 0.05 µM: 101%
